Counter-ions that a name gives are not always drawn. Like-named read-outs stand apart in the source and are kept apart here.
Assays:
[1] = molecular target: T1, Na^+,K^+ -ATPase receptor (Homo sapiens, UniProt P05023); experiment: displacement of the specific ^3 H-ouabain binding from the Na^+,K^+ -ATPase receptor
T1 construct: Na^+,K^+ -ATPase receptor purified according to Jorghensen; from tissue
Source text: (§1) To test the affinity for the receptor site of the Na^+,K^+ -ATPase and the agonist or inhibitory activity on the enzyme, the following tests were used: a) displacement of the specific ^3 H-ouabain binding from the Na^+,K^+ -ATPase receptor purified according to Jorghensen (Jorghensen P., BBA, 1974,356, 36) and Erdmann (Erdmann E. et al., Arzneim. Forsh., 1984, 34 (II), 1314); b) inhibition of the activity of the purified Na^+,K^+ -ATPase measured as % of hydrolysis of ^32 P-ATP in presence and in absence of the tested compound (Mall F. et al., Biochem. Pharmacol., 1984, 33, 47).
(§2) The affinity and the inhibitory activity of the aglycone digitoxigenin (DIGI), dihydrodigitoxigenin 20(S) (DIGI 20(S)) and dihydrodigitoxigenin 20(R) (DIGI 20(R)) and some basic 3β-derivatives on the two tests are shown in the following table: […]

[2] = molecular target: T2, purified Na^+,K^+ -ATPase (Homo sapiens, UniProt P05023); experiment: inhibition of the activity of the purified Na^+,K^+ -ATPase (hydrolysis of ^32 P-ATP); assay type: biochemical
T2 construct: Na^+,K^+ -ATPase receptor purified according to Jorghensen; from tissue
Source text: as §1, §2

[3] = system: spontaneous hypertensive rats (MHS); experiment: systolic blood pressure and heart rate in hypertensive MHS rats (indirect tail-cuff); assay type: in vivo, rat (MHS); settings: 20 mg/Kg/os daily for ten days in Methocel 0.5% w/v, 7 MHS rats; for SBP (systolic blood pressure): controls 171 +/- 4.5; for HR (heart rate): controls 384 +/- 11.0
Method: The ability of these compounds to lower blood pressure in adult hypertensive MHS rats was tested by the following method:
systolic blood pressure (SBP) and heart rate (HR) were measured by an indirect tail-cuff method in three-month old hypertensive MHS rats before beginning treatment (basal values). The rats were then subdivided in two groups of 7 animals each, one receiving the compound and the other, the control group, receiving only the vehicle. The compound, suspended in METHOCEL® 0.5% (w/v), for ten days, was administered daily by mouth. SBP and HR were measured daily 6 and 24 hours after the treatment. When ten-day treatment washout had been under way for at least two days, whether the treatment mantains SBP low or re-establish the basal values was verified. […]

[4] = ^3 H-ouabain displacement, purified Na^+,K^+ -ATPase, read-out: Binding ^3 H-Ouab. Displacement log IC50 (converted)
[5] = % hydrolysis of ^32 P-ATP, purified Na^+,K^+ -ATPase, read-out: Inhibitory Activity log IC50 (converted)

Compound	IC50 [1] [nM]	IC50 [2] [nM]	SBP (systolic blood pressure) [3]	HR (heart rate) [3]	IC50 [1, 4] [nM]	IC50 [2, 5] [nM]
C[C@]12CC[C@H](OCCN3CCCC3)C[C@H]1CC[C@@H]1[C@@H]2CC[C@]2(C)[C@@H](C3=CC(=O)OC3)CC[C@]12O [Comp. I-a, 3β-(2-(1-Pyrrolidinyl)ethoxy)-14β-hydroxy-5β-card-20(22)-enolide]	63.1	251				
CN(C)CCCO[C@H]1CC[C@@]2(C)[C@H](CC[C@@H]3[C@@H]2CC[C@]2(C)[C@@H](C4=CC(=O)OC4)CC[C@]32O)C1 [Comp. I-b, 3β-(3-Dimethylaminopropoxy)-14β-hydroxy-5β-card-20(22)-enolide]	200	5010				
C[C@]12CC[C@H](OCC[N+](C)(C)C)C[C@H]1CC[C@@H]1[C@@H]2CC[C@]2(C)[C@@H](C3=CC(=O)OC3)CC[C@]12O [Comp. I-c, 3β-(2-(trimethylammonium)ethoxy)-14β-hydroxy-5β-card-20(22)-enolide chloride]	251	501	152 +/- 5.0 mm Hg	375 +/- 9.0 beats/min.		
C[C@]12CC[C@H](OCCCN)C[C@H]1CC[C@@H]1[C@@H]2CC[C@]2(C)[C@@H](C3=CC(=O)OC3)CC[C@]12O [Comp. I-d, 3β-(3-Aminopropoxy)-14β-hydroxy-5β-card-20(22)-enolide oxalate]	126	631	148 +/- 3.2 mm Hg	388 +/- 12.0 beats/min.		
CN(C)CCOCCO[C@H]1CC[C@@]2(C)[C@H](CC[C@@H]3[C@@H]2CC[C@]2(C)[C@@H](C4=CC(=O)OC4)CC[C@]32O)C1 [Comp. I-e, 3β-(2-(2-dimethylaminoethoxy)ethoxy)-14β-hydroxy-5β-card-20(22)-enolide]	100	1000	149 +/- 4.8 mm Hg	395 +/- 10.0 beats/min.		
C[C@]12CC[C@H](OCCC(=N)N)C[C@H]1CC[C@@H]1[C@@H]2CC[C@]2(C)[C@@H](C3=CC(=O)OC3)CC[C@]12O [Comp. I-f, 3β-(2-Amidinoethoxy)-14β-hydroxy-5β-card-20(22)-enolide oxalate]	158	1580	153 +/- 5.1 mm Hg	378 +/- 8.5 beats/min.		
C[C@]12CC[C@H](SCC3CO3)C[C@H]1CC[C@@H]1[C@@H]2CC[C@]2(C)[C@@H](C3=CC(=O)OC3)CC[C@]12O (stereo partly drawn) [Comp. I-h, 3β-(2,3-Epoxy)propylthio-14β-hydroxy-5β-card-20(22)-enolide]	63.1	631	157 +/- 6.0 mm Hg	382 +/- 6.8 beats/min.		
C[C@]12CC[C@H](SCCN)C[C@H]1CC[C@@H]1[C@@H]2CC[C@]2(C)[C@@H](C3=CC(=O)OC3)CC[C@]12O [Comp. I-i, 3β-(2-Aminoethylthio)-14β-hydroxy-5β-card-20(22)-enolide oxalate]	100	631				
C[C@]12CC[C@H](SCCN)C[C@H]1CC[C@@H]1[C@@H]2CC[C@]2(C)[C@@H]([C@H]3COC(=O)C3)CC[C@]12O [Comp. I-j, 3β-(2-Aminoethylthio)-14β-hydroxy-5β-20(S) cardanolide oxalate]					316	3160
C[C@]12CC[C@H](SCCCN)C[C@H]1CC[C@@H]1[C@@H]2CC[C@]2(C)[C@@H](C3=CC(=O)OC3)CC[C@]12O [Comp. I-k, 3β-(3-Aminopropylthio)-14β-hydroxy-5β-card-20(22)-enolide oxalate]	79.4	501	155 +/- 4.2 mm Hg	385 +/- 11.0 beats/min.		
C[C@]12CC[C@H](SCCCN)C[C@H]1CC[C@@H]1[C@@H]2CC[C@]2(C)[C@@H]([C@H]3COC(=O)C3)CC[C@]12O [Comp. I-l, 3β-(3-Aminopropylthio)-14β-hydroxy-5β-20(S)-cardanolide oxalate]			147 +/- 4.8 mm Hg	390 +/- 10.0 beats/min.	251	2000
C[C@]12CC[C@H](SCCCN)C[C@H]1CC[C@@H]1[C@@H]2CC[C@]2(C)[C@@H]([C@@H]3COC(=O)C3)CC[C@]12O [Comp. I-m, 3β-Aminopropylthio )-14β-hydroxy-5β-20(R)-cardanolide oxalate]					398	2510
C[C@]12CC[C@H](SCCN3CCCC3)C[C@H]1CC[C@@H]1[C@@H]2CC[C@]2(C)[C@@H](C3=CC(=O)OC3)CC[C@]12O [Comp. I-n, 3β-(2-(1-Pyrrolidinyl)ethylthio)-14β-hydroxy-5β-card-20(22)-enolide sesquioxalate]	200	398				
C[C@]12CC[C@H](SCC[N+](C)(C)C)C[C@H]1CC[C@@H]1[C@@H]2CC[C@]2(C)[C@@H](C3=CC(=O)OC3)CC[C@]12O [Comp. I-p, 3β-(2-(Trimethylammonium)ethylthio)-14β-hydroxy-5β-card-20(22)-enolide chloride]	100	794	150 +/- 3.5 mm Hg	378 +/- 9.3 beats/min.		
C[C@]12CC[C@H](SCCCN3CCCC3)C[C@H]1CC[C@@H]1[C@@H]2CC[C@]2(C)[C@@H](C3=CC(=O)OC3)CC[C@]12O [Comp. I-q, 3β-(3-(1-Pyrrolidinyl)propylthio)-14β-hydroxy-5β-card-20(22)-enolide oxalate]	158	251				
C[C@]12CC[C@H](SCCCN3CCNCC3)C[C@H]1CC[C@@H]1[C@@H]2CC[C@]2(C)[C@@H](C3=CC(=O)OC3)CC[C@]12O [Comp. I-r, 3β-(3-(1-Piperazinyl)propylthio)-14β-hydroxy-5β-card-20(22)-enolide]	316	631				
C[C@]12CC[C@H](SCC(O)CO)C[C@H]1CC[C@@H]1[C@@H]2CC[C@]2(C)[C@@H](C3=CC(=O)OC3)CC[C@]12O (stereo partly drawn) [Comp. I-s, 3β-(2,3-Dihydroxypropylthio)-14β-hydroxy-5β-card-20(22)-enolide]	79.4	631	149 +/- 4.1 mm Hg	394 +/- 6.3 beats/min.		
C[C@]12CC[C@H](SCC(O)CN)C[C@H]1CC[C@@H]1[C@@H]2CC[C@]2(C)[C@@H](C3=CC(=O)OC3)CC[C@]12O (stereo partly drawn) [Comp. I-u, 3β-(3-Amino-2-hydroxypropylthio)-14β-hydroxy-5β-card-20(22)-enolide]	50.1	251	152 +/- 5.2 mm Hg	377 +/- 9.0 beats/min.		
C[C@]12CC[C@H](O)C[C@H]1CC[C@@H]1[C@@H]2CC[C@]2(C)[C@@H]([C@@H]3COC(=O)C3)CC[C@]12O [DIGI 20(R), dihydrodigitoxigenin 20(R), reference compound]	2510	7940				
C[C@]12CC[C@H](O)C[C@H]1CC[C@@H]1[C@@H]2CC[C@]2(C)[C@@H]([C@H]3COC(=O)C3)CC[C@]12O [DIGI 20(S), dihydrodigitoxigenin 20(S), reference compound]	1580	2510				
C[C@]12CC[C@H](O)C[C@H]1CC[C@@H]1[C@@H]2CC[C@]2(C)[C@@H](C3=CC(=O)OC3)CC[C@]12O [DIGI, digitoxigenin]	316	316	173 +/- 4.0 mm Hg	380 +/- 10.0 beats/min.		

— patent publication US5478817A, “Digitoxigenin and dihydrodigitoxigenin 3β-derivatives and pharmaceutical compositions comprising same for the treatment of cardiovascular disorders” (priority 1992, dated 1995)
